*: point of attachment. NHNH2 = NN*
How the values were obtained:
Format in all cases: cell-based
Hek293 cells = assay: EGFP mRNA delivery, robotic library screening, Hek293
Experimental: Cells were seeded in a 96 well plate the day before the experiment at a concentration of 50,000 cell/mL (100 μL/w) in DMEM+10% FBS+1% Gln-Abt. For robotic library screening, the delivery of EGFP-mRNA (from TriLink, fully substituted with 5-methoxyuridine, capped and polyadenylated; TriLink, CleanCap® EGFP mRNA (5moU), ref. L-7201) in six different cell lines was performed. Amphiphilic molecule stock solutions were prepared in DMSO as described above and diluted in DMEM to afford a range of concentrations. The solutions of EGFP-mRNA/amphiphilic molecule complexes were freshly prepared prior to the transfection experiments. 35 μL of the corresponding amphiphile were added to 10 μL of a solution of EGFP-mRNA at 10 ng/μL in DMEM. The mixture was shaken for 30 min at room temperature before the addition to the cells. The cell medium was aspirated, and cells were washed with PBS twice. Cells were covered with 39 μL of DMEM and 11 μL of the complex's solution were added to the cells and incubated for 4 h (final concentration of peptide=2.5, 5 and 10 μM; final concentration of EGFP-mRNA=25 ng/well). After the incubation, the medium was replaced by 100 μL of fresh DMEM supplemented with 10% FBS. The total EGFP fluorescence was quantified after 72 h in a well plate reader. Amphiphile transfection efficiency was compared and normalized to Lipofectamine® MessengerMax efficiency (value of 1 in Tables 1-5 and 7; double underlined numbers). All experiments were done in triplicate.
(§1) Tables 1-7: RLuc (pDNA) or EGFP (mRNA) expression levels were normalized to Lipofectamine reagents (value=1) and expressed as fold-times signal increase. In the case of siRNA, the siRNA treated cells fluorescence was compared with siMOCK control fluorescence, while Cas9-RNP mediated knockout was measured against the fluorescence of untreated cells. In both siRNA and Cas9-RNP, values are expressed as % fluorescence reduction. Amphiphile concentration was 5 μM in all cases. All experiments were performed in triplicate.
Tables 14-19 show the mean (triplicates) fluorescence intensity measured after the transfection of EGFP mRNA by different amphiphiles at different concentrations in a variety of cell lines. Background fluorescence values, accounted by untreated control cells, were subtracted for processing.

[1] = tested on: Hek293 cells expressing EGFP; assay: EGFP-targeting siRNA delivery (GFP silencing vs siMOCK), Hek293
Experimental: To generate an EGFP expressing HeLa cell line, HeLa cells were transfected with EGFP pDNA (pEGFP-C1, Clontech) and stable transfectants were selected with 400 μg/mL of G-418 (Millipore). Green clones were selected by epifluorescence microscopy and tested for EGFP expression stability through several passages. […] All other EGFP-expressing cell lines were obtained in a similar way from parent non-EGFP-expressing cell lines.
Cells expressing EGFP were seeded in a 96 well plate the day before the experiment at a concentration of 50,000 cell/mL (100 μL/w) in DMEM+10% FBS+1% Gln-Abt. For robotic library screening, the delivery of an EGFP-targeting siRNA (EGFP: enhanced green fluorescent protein, Ambion® Silencer® GFP Positive Control siRNA (siGFP) (AM4626)) in six different cell lines expressing EGFP was performed. […] The mixture was shaken for 30 min at room temperature (rt) before the addition to the cells. The cell medium was aspirated, and cells were washed twice with PBS. Finally, 50 μL of the solution of siRNA/amphiphile complexes were added to the cells and incubated for 4 h. After transfection, the medium was replaced by 100 μL of fresh DMEM supplemented with 10% FBS. The fluorescence knockdown was quantified after 72 h in a plate reader, by comparison with cells transfected with a non-targeting siRNA control (siMOCK, Silencer™ Negative Control No. 1 siRNA (siMOCK) (AM4611)). EGFP knockdown was compared with Lipofectamine® RNAiMAX silencing efficiency (30-60% depending on cell line, defined with a numeric value in the below tables). All experiments were done in triplicate.
as §1
Tables 20-25 show the mean (triplicates) percentage of GFP-silencing, accounted by fluorescence intensity decrease relative to a non-targeting siRNA (siMOCK) control, measured after the transfection of siRNA by different amphiphiles at different concentrations in a variety of cell lines. Background values, accounted by untreated control cells, were subtracted for processing.

A549 cells = assay: RLuc pDNA delivery, robotic library screening, A549
Experimental: Cells were seeded in a 96 well plate the day before the experiment at a concentration of 60,000 cell/mL (100 μL/w) in DMEM+10% FBS+1% Gln-Abt. For robotic library screening, the delivery of pDNA encoding for the expression of Renilla luciferase gene (RLuc, pRL-CMV (Promega, #E2261)) in six different cell lines was performed. Amphihilic molecule stock solutions in DMSO were diluted with DMEM and freshly mixed with pDNA stock solutions in DMEM prior to transfection experiments, to afford several complexes at different amphiphile concentration (2-10 μM) while maintaining a constant final pDNA concentration of 2 ng/μL. The mixture was shaken for 30 min at room temperature before the addition to the cells. The cell medium was aspirated, and cells were washed twice with PBS. Finally, 50 μL of the complex's solution were added to the cells and incubated for 4 h. After the incubation, the medium was replaced by 100 μL of fresh DMEM supplemented with 10% FBS. 72 hours after transfection the DMEM was removed, cells were washed once with HBSS and 90 μL of HBSS were added to each well. Cells were incubated at 37° C. for 30 minutes. Then basal luminescence levels were read in a plate reader. Immediately, 10 μL of coelenterazine h in HBSS were added to each well (5 μM final concentration) and cells were incubated at 37° C. for 10 minutes. Finally, the total luminescence measurement of the plates was performed. Amphiphile transfection efficiency was compared and normalized to Lipofectamine® 2000 efficiency (value of 1 in Tables 1-5 and 7; bold numbers). All experiments were done in triplicate.
as §1
Tables 8-13 show the mean (triplicates) luminescent intensity (RLU) measured after the transfection of RLuc pDNA by different amphiphiles at different concentrations in a variety of cell lines. Background luminescence values, accounted by untransfected control cells, were subtracted for processing.

Substance	mean fluorescence intensity (EGFP mRNA) (Hek293 cells; Dodecanal, 5 μM)	mean fluorescence intensity (EGFP mRNA) (Hek293 cells; Dodecanal, 10 μM)	mean fluorescence intensity (EGFP mRNA) (Hek293 cells; Myristoleyl, 2.5 μM)	mean fluorescence intensity (EGFP mRNA) (Hek293 cells; Myristoleyl, 5 μM)	mean fluorescence intensity (EGFP mRNA) (Hek293 cells; Myristoleyl, 10 μM)	percentage of GFP-silencing relative to siMOCK ([1]; Dodecanal, 15 μM)	mean luminescent intensity (RLuc pDNA) (A549 cells; Dodecanal, 15 μM)	mean luminescent intensity (RLuc pDNA) (A549 cells; Myristoleyl, 5 μM)	mean luminescent intensity (RLuc pDNA) (A549 cells; Myristoleyl, 10 μM)	mean luminescent intensity (RLuc pDNA) (A549 cells; Myristoleyl, 15 μM)	percentage of GFP-silencing relative to siMOCK ([1]; Myristoleyl, 10 μM)	percentage of GFP-silencing relative to siMOCK ([1]; Oleyl, 15 μM)	mean luminescent intensity (RLuc pDNA) (A549 cells; Dodecanal, 10 μM)	mean luminescent intensity (RLuc pDNA) (A549 cells; Oleyl, 10 μM)	mean luminescent intensity (RLuc pDNA) (A549 cells; Oleyl, 15 μM)	mean luminescent intensity (RLuc pDNA) (A549 cells; Palmitoleyl, 5 μM)	mean luminescent intensity (RLuc pDNA) (A549 cells; Palmitoleyl, 15 μM)	mean luminescent intensity (RLuc pDNA) (A549 cells; Petroselinyl, 15 μM)	mean fluorescence intensity (EGFP mRNA) (Hek293 cells; Oleyl, 2.5 μM)	mean fluorescence intensity (EGFP mRNA) (Hek293 cells; Oleyl, 5 μM)	also measured
Ac-RK*LRRK*L-NH2 (Ac-RK(NHNH2)LRRK(NHNH2)L-NH2; not fully specified; printed as Ac-RK*LRRK*L-NH2; also: K*2,K*6: native or modified lysine (ε-amide to a linker)) [Peptide 7.2]	71	648	2550	1729	591	7%	208 RLU	5449 RLU	5343 RLU	2367 RLU	–	–	–	–	–	–	–	–	–	–	mean fluorescence intensity (EGFP mRNA) (Hek293 cells; Dodecanal, 2.5 μM): 251; percentage of GFP-silencing relative to siMOCK ([1]; Myristoleyl, 5 μM): −8%; mean luminescent intensity (RLuc pDNA) (A549 cells; Dodecanal, 5 μM): 302 RLU
Ac-RRLK*RLLRRLK*RLK*RRL-NH2 (Ac-RRLK(NHNH2)RLLRRLK(NHNH2)RLK(NHNH2)RRL-NH2; not fully specified; printed as Ac-RRLK*RLLRRLK*RLK*RRL-NH2; also: K*4,K*11,K*14: native or modified lysine (ε-amide to a linker)) [Peptide 17.3]	–	–	–	–	–	–	1660 RLU	–	1545 RLU	2581 RLU	48%	25%	1381 RLU	1201 RLU	1552 RLU	2518 RLU	2585 RLU	2614 RLU	–	–	percentage of GFP-silencing relative to siMOCK ([1]; Palmitoleyl, 10 μM): 37%; percentage of GFP-silencing relative to siMOCK ([1]; Petroselinyl, 5 μM): 9%; percentage of GFP-silencing relative to siMOCK ([1]; Petroselinyl, 15 μM): 52%
Ac-RRLK*RLLRRLK*RL-NH2 (Ac-RRLK(NHNH2)RLLRRLK(NHNH2)RL-NH2; not fully specified; printed as Ac-RRLK*RLLRRLK*RL-NH2; also: K*4,K*11: native or modified lysine (ε-amide to a linker)) [Peptide 13.2]	678	520	–	–	–	–	–	–	–	–	–	17%	–	1152 RLU	1367 RLU	–	–	–	955	666	mean fluorescence intensity (EGFP mRNA) (Hek293 cells; Oleyl, 10 μM): 791; percentage of GFP-silencing relative to siMOCK ([1]; Oleyl, 10 μM): −7%; mean luminescent intensity (RLuc pDNA) (A549 cells; Oleyl, 5 μM): 2368 RLU
Ac-RHLK*RHK*RRLK*RH-NH2 (Ac-RHLKRHKRRLKRH-NH2; not fully specified (residues 4, 7, 11); printed as Ac-RHLK*RHK*RRLK*RH-NH2; also: linker on K* not given here) [13(3His)]	1878	1687	2039	1952	3636	–	1261 RLU	37751 RLU	2256 RLU	–	–	–	–	–	–	18924 RLU	2990 RLU	8545 RLU	2611	735	mean fluorescence intensity (EGFP mRNA) (Hek293 cells; Oleyl, 10 μM): 1303; mean fluorescence intensity (EGFP mRNA) (Hek293 cells; Petroselinyl, 2.5 μM): 3629; mean fluorescence intensity (EGFP mRNA) (Hek293 cells; Petroselinyl, 5 μM): 2394; mean fluorescence intensity (EGFP mRNA) (Hek293 cells; Petroselinyl, 10 μM): 2964; percentage of GFP-silencing relative to siMOCK ([1]; Dodecanal, 10 μM): −11%; percentage of GFP-silencing relative to siMOCK ([1]; Myristoleyl, 15 μM): 11%; percentage of GFP-silencing relative to siMOCK ([1]; Oleyl, 10 μM): 2%; mean luminescent intensity (RLuc pDNA) (A549 cells; Oleyl, 5 μM): 25257 RLU; mean luminescent intensity (RLuc pDNA) (A549 cells; Palmitoleyl, 10 μM): 2866 RLU; mean luminescent intensity (RLuc pDNA) (A549 cells; Petroselinyl, 5 μM): 5271 RLU
Ac-RK*LRRLLRK*-NH2 (Ac-RK(NHNH2)LRRLLRK(NHNH2)-NH2; not fully specified; printed as Ac-RK*LRRLLRK*-NH2; also: K*2,K*9: native or modified lysine (ε-amide to a linker)) [Peptide 9.2]	–	–	–	–	–	3%	–	10365 RLU	3358 RLU	1684 RLU	10%	–	1215 RLU	–	–	–	–	–	–	–	percentage of GFP-silencing relative to siMOCK ([1]; Dodecanal, 5 μM): 14%; percentage of GFP-silencing relative to siMOCK ([1]; Myristoleyl, 15 μM): −1%

Source: US20250304623A1, “PEPTIDES FOR INTRACELLULAR DELIVERY” (UNIVERSIDADE DE SANTIAGO DE COMPOSTELA, priority 2022, published 2025)
